Results as given in paper PMC8712300 (European Journal of Nuclear Medicine and Molecular Imaging, 2021).
“And” between values parts separate entries of the source, which are not always exact repeats. Equal values may be shown once. Read-outs that look alike come from different tables or passages of the source.

How the values were obtained:
[1] = biological target: central benzodiazepine receptor (CBR); details: read-out: Ki CBR; displacement of [^3H]flunitrazepam, rat cerebral cortex
Procedure: (§1) The binding assay was performed following a previously published procedure [22], with slight modifications.

[2] = biological target: T1, TSPO (Rattus norvegicus, UniProt P16257); assay: biochemical
T1 sequence (P16257 whole entry): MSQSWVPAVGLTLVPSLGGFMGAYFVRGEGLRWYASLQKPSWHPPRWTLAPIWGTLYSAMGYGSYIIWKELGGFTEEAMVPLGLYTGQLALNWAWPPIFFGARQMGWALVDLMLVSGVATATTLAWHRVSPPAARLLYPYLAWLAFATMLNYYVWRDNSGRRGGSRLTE
Procedure: as §1

[3] = biological target: TSPO-WT (HAB) (Homo sapiens, UniProt P30536, T147A); assay: biochemical
TSPO-WT (HAB), sequence (P30536 whole entry T147A): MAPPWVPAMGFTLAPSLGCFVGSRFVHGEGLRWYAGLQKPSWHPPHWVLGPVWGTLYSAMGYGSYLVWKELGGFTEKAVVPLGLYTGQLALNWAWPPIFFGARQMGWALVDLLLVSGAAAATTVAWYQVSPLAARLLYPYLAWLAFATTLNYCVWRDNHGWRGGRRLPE

[4] = biological target: TSPO-mutant A147T (LAB) (Homo sapiens, UniProt P30536); assay: biochemical
TSPO-mutant A147T (LAB), sequence (P30536 whole entry, stated change not applied): as the sequence (P30536 whole entry T147A) above, with A147T counted along it

[5] = biological target: T1, TSPO
[6] = n-octanol/PBS pH 7.4, individual replicates
Procedure: (§2) After vortexing for 1 min, each tube was placed on a table at 25 °C for 3 min. Samples of each phase (100 μL) were counted for radioactivity using a gamma-counter. Log D is expressed as the logarithm of the ratio of the count of n-octanol to that of PBS.

[7] = 37 °C, 120 min
Procedure: Aliquots (0.2 mL) were collected at 0, 15, 30, 60, and 120 min and mixed with acetonitrile (0.2 mL), and then centrifuged at 3500 rpm for 5 min. The resulting supernatants were analyzed using a radio-TLC scanner with the developing solvent (50% ethyl acetate-hexane).

[8] = normal mice, PET 90 min
Procedure: Normal male C57BL/6 mice (n = 4, 6–7 weeks old, Orientbio Inc.) were used to perform in vivo organ distribution and dosimetry studies (see methodological details in the SI).
All the mice (n = 4) were anesthetized with 2% isoflurane. […] The CT images were used to draw region of interest (ROI) on the following organs: the brain, heart, lung, liver, stomach, urinary bladder, intestine kidneys and adrenals. […] The accumulated activity for each organ were calculated by using the area under curve (AUC) of TACs.

[9] = not given; remark: listed apart in the source
[10] = biological target: T1, TSPO; remark: listed apart in the source
Procedure: Male Sprague–Dawley rats (7–8 weeks old, Orientbio Inc.) were used to create rat models of neuroinflammation and ischemic stroke (n = 4 for each model). An acute neuroinflammation rat model was generated by injecting lipopolysaccharides (LPS, 50 μg) into the right striatum of rat brain according to our previous protocol [26]. […] In the case of LPS-induced neuroinflammatory model, rats were anesthetized with ketamine hydrochloride (50 mg/kg) and xylazine hydrochloride (0.2 mg/kg) before LPS injection.
The PET imaging study was performed using a dedicated animal PET/CT scanner (NanoPET/CT; Mediso Inc., Budapest, Hungary) with a 10-cm axial field-of-view (FOV) and a 12-cm transaxial FOV. Before PET imaging, the rats were anesthetized with 2% isoflurane. […]
(§3) The volumes of interest (VOIs) were drawn around the peak PET activity on the ipsilateral region in a coronal PET/CT slice, and symmetrically pasted into the contralateral side on the same slice to yield a contralateral VOI of identical volume and shape. […] Decay-corrected radioactivity in the VOI was expressed as the standardized uptake value (SUV), which was normalized to the injected radioactivity and body weight of the rat using PMOD software version 3.6 (PMOD Technologies Ltd., Zurich, Switzerland). […] The binding potential (BPND) was also calculated as a quantitative value, which represented the receptor binding with the radioligand. […]

[11] = biological target: T1, TSPO; remark: listed apart in the source
Source text: Male Sprague–Dawley rats (7–8 weeks old, Orientbio Inc.) were used to create rat models of neuroinflammation and ischemic stroke (n = 4 for each model). […] An ischemic stroke rat model was generated via 60-min occlusion of the right middle cerebral artery (MCAO), as previously described [27]. […] In the case of ischemic stroke model, rats were anesthetized with 5% isoflurane in the presence of 30% nitrous oxide and 70% oxygen, and then were under anesthesia with 2% isoflurane in the presence of 30% nitrous oxide and 70% oxygen during MCAO surgery.
The PET imaging study was performed using a dedicated animal PET/CT scanner (NanoPET/CT; Mediso Inc., Budapest, Hungary) with a 10-cm axial field-of-view (FOV) and a 12-cm transaxial FOV. […]
as §3

[12] = physchem; details: n-octanol/PBS
Procedure: as §2

[13] = in vitro; details: rat, rat plasma
Procedure: (§4) Plasma protein binding (PPB) was measured using two plasma samples obtained from five rats and a healthy volunteer. […] The mixtures were transferred to the Amicon® Ultra 30 K device (Merck Millipore, USA), and centrifuged at 12,000 rpm for 15 min. […] The plasma-free fraction (fP) was calculated as fp = (APfree /APtotal)/(ASfree/AStotal).

[14] = in vitro; details: human, human plasma
Procedure: as §4

## CCCN(CCC)C(=O)Cc1c(-c2ccc(F)cc2)nc2c(Cl)cc(Cl)cn12 [BS224]
[1]
  Ki: > 100000 nM
[2]
  Ki: 0.51 ± 0.03 nM
[3]
  IC50: 590 ± 40 nM
[4]
  IC50: 450 ± 20 nM

## CCCN(CCC)C(=O)Cc1c(-c2ccc(OCCF)cc2)nc2c(Cl)cc(Cl)cn12 [CB251]
[1]
  Ki: > 100000 nM

## CN1C(=O)CN=C(c2ccccc2F)c2cc([N+](=O)[O-])ccc21 [Flunitrazepam]
[1]
  Ki: 6.2 ± 0.1 nM

## CCC(C)N(C)C(=O)c1cc2ccccc2c(-c2ccccc2Cl)n1 (stereo not drawn) [PK 11195]
[1]
  Ki: > 100000 nM
[5]
  effect on [^18F]BS224 radioactivity in brain slices (blocking): significant reduction of radioactivity

## CCCN(CCC)C(=O)Cc1c(-c2ccc([18F])cc2)nc2c(Cl)cc(Cl)cn12 [[^18F]BS224, 2-(-2-(4-[^18F]fluorophenyl)-6,8-dichloro-imidazo[1,2-a]pyridin-3-yl)-N,N-dipropylacetamide]
[6]
  Log D (single measurements 1-5): 2.754 and 2.735
[7]
  parent compound remained intact in human serum: over 99%
30 min
  % in heart, Parent: Intact
  % in kidneys, Parent: Intact
  % in liver, Parent: 73.6% and 73.6 ± 5.9%
  % in lung, Parent: Intact
  % in plasma, Parent: 90.7 ± 0.8%
30 min after i.v. injection, rat
  % in brain, Parent: Intact
90 min
  % in heart, Parent: Intact
  % in kidneys, Parent: Intact
  % in liver, Parent: 53.1% and 53.1 ± 2.7%
  % in lung, Parent: Intact
  % in plasma, Parent: 69.2 ± 2.9%
90 min after i.v. injection, rat
  % in brain, Parent: Intact
Gamma counting, rat
  radioactivity in the femur (in vivo defluorination): no radioactivity could be detected
[8]
  AUC Brain: 201.75±19.25 %ID/g min
  AUC Heart: 442.73±84.59 %ID/g min
  AUC Intestine: 250.45±7.71 %ID/g min
  AUC Kidney: 1345.08±260.65 %ID/g min
  AUC Liver: 1102.68±140.38 %ID/g min
  AUC Lung: 403.48±82.21 %ID/g min
  AUC Stomach: 198.98±53.18 %ID/g min
  AUC Urinary Bladder: 91.44±21.23 %ID/g min
  Cmax Brain: 5.78±1.51 %ID/g
  Cmax Heart: 20.81±8.05 %ID/g
  Cmax Intestine: 3.66±0.19 %ID/g
  Cmax Kidney: 16.33±3.08 %ID/g
  Cmax Liver: 16.21±1.95 %ID/g
  Cmax Lung: 14.38±5.88 %ID/g
  Cmax Stomach: 3.12±0.81 %ID/g
  Cmax Urinary Bladder: 1.35±0.22 %ID/g
  Tmax Brain: 1.83 ± 0.68 min
  Tmax Heart: 0.83 ± 0.20 min
  Tmax Intestine: 38.96 ± 21.39 min
  Tmax Kidney: 64.38 ± 16.21 min
  Tmax Liver: 38.29 ± 20.60 min
  Tmax Lung: 0.71 ± 0.24 min
  Tmax Stomach: 41.88 ± 23.30 min
  Tmax Urinary Bladder: 45.94 ± 14.36 min
[9]; extrapolated from normal mouse data
  Effective dose (estimated whole-body human): 5.18 μSv/MBq and 05.18 ± 1.03 μSv/MBq
[9]; from normal mouse data
  Estimated Human Absorbed Dose, Adrenals: 09.66 ± 2.52 µGy/MBq
  Estimated Human Absorbed Dose, Brain: 04.87 ± 0.90 µGy/MBq
  Estimated Human Absorbed Dose, Breast: 02.28 ± 0.60 µGy/MBq
  Estimated Human Absorbed Dose, Colon wall: 02.79 ± 0.55 µGy/MBq
  Estimated Human Absorbed Dose, ET region: 00.75 ± 0.14 µGy/MBq
  Estimated Human Absorbed Dose, Endosteum (bone surface): 00.91 ± 0.19 µGy/MBq
  Estimated Human Absorbed Dose, Eye lenses: 00.52 ± 0.09 µGy/MBq
  Estimated Human Absorbed Dose, Gallbladder wall: 14.98 ± 3.89 µGy/MBq
  Estimated Human Absorbed Dose, Heart wall: 10.54 ± 3.14 µGy/MBq
  Estimated Human Absorbed Dose, Kidneys: 26.23 ± 8.91 µGy/MBq
  Estimated Human Absorbed Dose, Liver: 28.88 ± 7.70 µGy/MBq
  Estimated Human Absorbed Dose, Lung: 07.99 ± 2.42 µGy/MBq
  Estimated Human Absorbed Dose, Lymphatic nodes: 02.60 ± 0.55 µGy/MBq
  Estimated Human Absorbed Dose, Muscle: 00.77 ± 0.17 µGy/MBq
  Estimated Human Absorbed Dose, Oesophagus: 03.90 ± 1.04 µGy/MBq
  Estimated Human Absorbed Dose, Oral mucosa: 00.50 ± 0.09 µGy/MBq
  Estimated Human Absorbed Dose, Pancreas: 07.79 ± 1.88 µGy/MBq
  Estimated Human Absorbed Dose, Prostate: 00.43 ± 0.05 µGy/MBq
  Estimated Human Absorbed Dose, Red (active) bone marrow: 02.01 ± 0.45 µGy/MBq
  Estimated Human Absorbed Dose, Salivary glands: 00.49 ± 0.09 µGy/MBq
  Estimated Human Absorbed Dose, Skin: 00.54 ± 0.12 µGy/MBq
  Estimated Human Absorbed Dose, Small intestine wall: 07.30 ± 0.29 µGy/MBq
  Estimated Human Absorbed Dose, Spleen: 02.90 ± 0.71 µGy/MBq
  Estimated Human Absorbed Dose, Stomach wall: 09.06 ± 3.12 µGy/MBq
  Estimated Human Absorbed Dose, Testes: 00.06 ± 0.00 µGy/MBq
  Estimated Human Absorbed Dose, Thymus: 01.88 ± 0.52 µGy/MBq
  Estimated Human Absorbed Dose, Thyroid: 00.95 ± 0.25 µGy/MBq
  Estimated Human Absorbed Dose, Urinary bladder wall: 09.46 ± 2.73 µGy/MBq
[10]; LPS model PET
  skull uptake: not observed
[10]; LPS model, SRTM, contralateral side as reference
  BPND: 1.43 ± 0.17
[11]; ischemic stroke model PET
  skull uptake: not observed
[11]; ischemic stroke model, SRTM, contralateral side as reference
  BPND: 1.57 ± 0.37
[12]; pH 7.4, Log D (single measurements 1-5), n-octanol/PBS pH 7.4, individual replicates
  logD: 2.78
[12]; pH 7.4, Log D, n-octanol/PBS pH 7.4, 25 °C, average n = 5
  logD: 2.78 ± 0.04
[13]
  fraction unbound at 10 min, 1.19 MBq/mL: 0.064 ± 0.003
[14]
  fraction unbound at 10 min, 1.19 MBq/mL: 0.049 ± 0.005
